# Test results from patent publication US20240132475A1, “SUBSTITUTED PYRAZOLYL COMPOUNDS AS MALT-1 INHIBITORS” (AURIGENE ONCOLOGY LIMITED, priority 2021, published 2024).
# Target: T1, MALT-1 (Isoform 1) (Homo sapiens, UniProt Q9UDY8)
# T1 construct: using recombinant MALT-1 (Isoform 1, aa-840) generated in house; made in house
# T1 sequence (Q9UDY8 1-824): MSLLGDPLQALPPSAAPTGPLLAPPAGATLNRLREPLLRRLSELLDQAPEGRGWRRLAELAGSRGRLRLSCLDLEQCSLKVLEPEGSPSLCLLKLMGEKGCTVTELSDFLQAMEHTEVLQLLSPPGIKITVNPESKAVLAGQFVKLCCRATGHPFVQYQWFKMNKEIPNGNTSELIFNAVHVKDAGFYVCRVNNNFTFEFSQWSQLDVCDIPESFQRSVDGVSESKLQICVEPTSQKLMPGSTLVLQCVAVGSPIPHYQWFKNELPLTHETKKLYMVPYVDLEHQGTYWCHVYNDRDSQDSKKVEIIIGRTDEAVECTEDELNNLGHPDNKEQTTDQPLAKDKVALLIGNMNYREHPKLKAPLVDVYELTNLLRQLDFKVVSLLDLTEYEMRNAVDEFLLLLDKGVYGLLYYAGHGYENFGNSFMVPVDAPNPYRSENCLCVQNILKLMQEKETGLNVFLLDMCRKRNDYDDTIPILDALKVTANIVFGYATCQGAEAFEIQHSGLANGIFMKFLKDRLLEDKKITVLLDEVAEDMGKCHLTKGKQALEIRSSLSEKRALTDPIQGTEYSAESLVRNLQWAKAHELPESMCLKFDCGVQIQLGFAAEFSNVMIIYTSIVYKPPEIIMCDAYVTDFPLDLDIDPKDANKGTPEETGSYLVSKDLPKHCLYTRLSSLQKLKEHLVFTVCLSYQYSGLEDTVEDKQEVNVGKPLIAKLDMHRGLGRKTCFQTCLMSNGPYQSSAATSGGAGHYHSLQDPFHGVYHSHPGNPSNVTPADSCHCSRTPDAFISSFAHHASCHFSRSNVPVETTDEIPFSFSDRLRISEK
# Assay: MALT-1 (Isoform 1) enzyme fluorescent biochemical assay
# Conditions: for IC50: dose-response, sigmoidal curve fit, reported as groups A, B, C; for inhibition at 1 µM: test compound 1 μM, recombinant MALT-1 1.5 nM, read-out: Percent Inhibition (1 μM)
# Protocol: The potency of compounds to inhibit MALT-1 (Isoform 1) enzyme was tested in a Fluorescent assay using recombinant MALT-1 (Isoform 1, aa-840) generated in house. The assay buffer was 50 mM HEPES (pH 7.5), 100 mM NaCl, 10 mM DTT, 1 mM EDTA, 0.9 M sodium citrate, 0.01% CHAPS. 1.5 nM of MALT-1 enzyme was incubated with test compounds ([…]) (1% DMSO) in the presence of buffer for 30 minutes at 30° C. The protease reaction was initiated by adding […] of AC-LRSR-MAC (Peptide International, USA) substrate and incubated for 240 min. After 240 min incubation, fluorescence emission of the samples at 460 nm was measured at an excitation of 355 nm. The percent inhibition was calculated using the following formula: […]. IC50 values were determined by fitting the dose-response data to sigmoidal curve fitting equation using Graph pad prism software V8.
# ND represents Not Determined.
SMILES,IC50,inhibition at 1 µM
"N#Cc1cc(NC(=O)c2cnn(Cc3ccc(F)c(Cl)c3)c2C(F)(F)F)cnc1-n1nccn1 [Compound 21, 1-(3-chloro-4-fluorobenzy1)-N-(5-cyano-6-(2H-1,2,3-triazol-2-yl)pyridin-3-yl)-5-(trifluoromethyl)-1H-pyrazole-4-carboxamide]",> 1000 nM,23%
"COc1ncc(NC(=O)c2cnn(Cc3cccc(F)c3)c2C(F)(F)F)cc1Cl [Compound 22, N-(5-chloro-6-methoxypyridin-3-yl)-1-(3-fluorobenzyl)-5-(trifluoromethyl)-1H-pyrazole-4-carboxamide]",–,41%
"N#Cc1cc(NC(=O)c2cnn(Cc3cccc(F)c3)c2C2CC2)cnc1-n1nccn1 [Compound 23, N-(5-cyano-6-(2H-1,2,3-triazol-2-yl)pyridin-3-yl)-5-cyclopropyl-1-(3-fluorobenzyl)-1H-pyrazole-4-carboxamide]",> 1000 nM,45%
"O=C(Nc1cnc(-n2nccn2)c(Cl)c1)c1cnn(Cc2cccc(F)c2)c1C(F)(F)F [Compound 25, N-(5-chloro-6-(2H-1,2,3-triazol-2-yl)pyridin-3-yl)-1-(3-fluorobenzyl)-5-(trifluoromethyl)-1H-pyrazole-4-carboxamide]",< 250 nM,100%
"Cc1c(F)cccc1Cn1ncc(C(=O)Nc2cnc(-n3nccn3)c(C#N)c2)c1C(F)(F)F [Compound 26, N-(5-cyano-6-(2H-1,2,3-triazol-2-yl)pyridin-3-y1)-1-(3-fluoro-2-methylbenzyl)-5-(trifluoromethyl)-1H-pyrazole-4-carboxamide]",< 250 nM,100%
"N#Cc1cc(NC(=O)c2cnn(Cc3cccc(F)c3F)c2C(F)(F)F)cnc1-n1nccn1 [Compound 27, N-(5-cyano-6-(2H-1,2,3-triazol-2-yl)pyridin-3-y1)-1-(2,3-difluorobenzyl)-5-(trifluoromethyl)-1H-pyrazole-4-carboxamide]",< 250 nM,100%
"Cc1ccc(F)cc1Cn1ncc(C(=O)Nc2cnc(-n3nccn3)c(C#N)c2)c1C(F)(F)F [Compound 28, N-(5-cyano-6-(2H-1,2,3-triazol-2-yl)pyridin-3-yl)-1-(5-fluoro-2-methylbenzyl)-5-(trifluoromethyl)-1H-pyrazole-4-carboxamide]",251 to 1000 nM,84%
"N#Cc1cc(NC(=O)c2cnn(Cc3cc(F)ccc3F)c2C(F)(F)F)cnc1-n1nccn1 [Compound 29, N-(5-cyano-6-(2H-1,2,3-triazol-2-yl)pyridin-3-y1)-1-(2,5-difluorobenzyl)-5-(trifluoromethyl)-1H-pyrazole-4-carboxamide]",251 to 1000 nM,70%
"Cc1c(F)cccc1Cn1ncc(C(=O)Nc2cnc(-n3nccn3)c(F)c2)c1C(F)(F)F [Compound 30, 1-(3-fluoro-2-methylbenzyl)-N-(5-fluoro-6-(2H-1,2,3-triazol-2-yl)pyridin-3-y1)-5-(trifluoromethyl)-1H-pyrazole-4-carboxamide]",251 to 1000 nM,97%

# More lines, now with the values ahead:
IC50,inhibition at 1 µM,SMILES
< 250 nM,95%,"Cc1c(F)cccc1Cn1ncc(C(=O)Nc2cnc(-n3nccn3)c(C(F)(F)F)c2)c1C(F)(F)F [Compound 31, N-(6-(2H-1,2,3-triazol-2-y1)-5-(trifluoromethyl)pyridin-3-y1)-1-(3-fluoro-2-methylbenzy1)-5-(trifluoromethyl)-1H-pyrazole-4-carboxamide]"
< 250 nM,99%,"Cc1c(F)cccc1Cn1ncc(C(=O)Nc2cnc(-n3nccn3)c(Cl)c2)c1C(F)(F)F [Compound 32, N-(5-chloro-6-(2H-1,2,3-triazol-2-y1)pyridin-3-y1)-1-(3-fluoro-2-methylbenzyl)-5-(trifluoromethyl)-1H-pyrazole-4-carboxamide]"
< 250 nM,99%,"N#Cc1cc(NC(=O)c2cnn(Cc3cccc(F)c3C(F)(F)F)c2C(F)(F)F)cnc1-n1nccn1 [Compound 33, N-(5-cyano-6-(2H-1,2,3-triazol-2-yl)pyridin-3-y1)-1-(3-fluoro-2-(trifluoromethyl)benzy1)-5-(trifluoromethyl)-1H-pyrazole-4-carboxamide]"
< 250 nM,99%,"O=C(Nc1cnc(-n2nccn2)c(Cl)c1)c1cnn(Cc2cccc(F)c2Cl)c1C(F)(F)F [Compound 34, 1-(2-chloro-3-fluorobenzy1)-N-(5-chloro-6-(2H-1,2,3-triazol-2-yl)pyridin-3-yl)-5-(trifluoromethyl)-1H-pyrazole-4-carboxamide]"
> 1000 nM,42%,"COc1cc(F)cc(Cn2ncc(C(=O)Nc3cnc(-n4nccn4)c(C#N)c3)c2C(F)(F)F)c1 [Compound 35, N-(5-cyano-6-(2H-1,2,3-triazol-2-yl)pyridin-3-yl)-1-(3-fluoro-5-methoxybenzyl)-5-(trifluoromethyl)-1H-pyrazole-4-carboxamide]"
251 to 1000 nM,86%,"N#Cc1cc(NC(=O)c2cnn(Cc3cc(F)cc(F)c3)c2C(F)(F)F)cnc1-n1nccn1 [Compound 36, N-(5-cyano-6-(2H-1,2,3-triazol-2-y1)pyridin-3-yl)-1-(3,5-difluorobenzyl)-5-(trifluoromethyl)-1H-pyrazole-4-carboxamide]"
251 to 1000 nM,81%,"COc1ncc(NC(=O)c2cnn(Cc3cccc(F)c3Cl)c2C(F)(F)F)cc1Cl [Compound 37, 1-(2-chloro-3-fluorobenzyl)-N-(5-chloro-6-methoxypyridin-3-y1)-5-(trifluoromethyl)-1H-pyrazole-4-carboxamide]"
< 250 nM,100%,"N#Cc1cc(NC(=O)c2cnn(Cc3cccc(F)c3Br)c2C(F)(F)F)cnc1-n1nccn1 [Compound 38, 1-(2-bromo-3-fluorobenzy1)-N-(5-cyano-6-(2H-1,2,3-triazol-2-yl)pyridin-3-yl)-5-(trifluoromethyl)-1H-pyrazole-4-carboxamide]"
< 250 nM,100%,"COc1c(F)cccc1Cn1ncc(C(=O)Nc2cnc(-n3nccn3)c(C#N)c2)c1C(F)(F)F [Compound 39, N-(5-cyano-6-(2H-1,2,3-triazol-2-yl)pyridin-3-y1)-1-(3-fluoro-2-methoxybenzyl)-5-(trifluoromethyl)-1H-pyrazole-4-carboxamide]"
251 to 1000 nM,75%,"O=C(Nc1ccnc(C(F)(F)F)c1)c1cnn(Cc2cccc(F)c2Cl)c1C(F)(F)F [Compound 40, 1-(2-chloro-3-fluorobenzyl)-5-(trifluoromethyl)-N-(2-(trifluoromethyl)pyridin-4-y1)-1H-pyrazole-4-carboxamide]"
> 1000 nM,14%,"O=C(Nc1cncnc1)c1cnn(Cc2cccc(F)c2Cl)c1C(F)(F)F [Compound 41, 1-(2-chloro-3-fluorobenzyl)-N-(pyrimidin-5-y1)-5-(trifluoromethyl)-1H-pyrazole-4-carboxamide]"
251 to 1000 nM,71%,"O=C(Nc1cncc(C(F)(F)F)c1)c1cnn(Cc2cccc(F)c2Cl)c1C(F)(F)F [Compound 42, 1-(2-chloro-3-fluorobenzyl)-5-(trifluoromethyl)-N-(5-(trifluoromethyl)pyridin-3-yl)-1H-pyrazole-4-carboxamide]"
